Key:
human p-STAT3 = molecular target: T1, human p-STAT3 (Homo sapiens, UniProt P40763); assay: Immunofluorescence staining of xenograft tumor cells for p-STAT3; assay type: in vivo; settings: human colon cancer xenograft tumor (SW480) in nude mice; treated vs control
T1 construct: p-STAT3 and β-CATENIN protein levels in human colon cancer xenograft tumor (SW480) in nude mice; endogenous in cells; host or cells: SW480 human colon cancer xenograft tumor in nude mice
From the text: (§1) The effects of 2-acetylnaphtho[2,3-b]furan-4,9-dione, a compound of formula (I), to tumor cells were studied by analyzing the tumor cells treated with the compound or without the compound (control) with immunofluorescence staining using antibodies specific for human p-STAT3 and 13-CATENIN.

[1] = Phase Ib study in mPDAC patients, safety and adverse events; assay type: in vivo, human; settings: in combination with gemcitabine and nab-paclitaxel
From the text: The effects of 2-acetylnaphtho[2,3-b]furan-4,9-dione, a compound of formula (I), in combination with gemcitabine and nab-paclitaxel in patients with metastatic pancreatic ductal adenocarcinoma (mPDAC) were studied in a Phase Ib extension, open label, multi-center study.
In that clinical study, the safety, tolerability and the recommended Phase II dose (RP2D), PK profile, and signs of anti-cancer activity of 2-acetylnaphtho[2,3-b]furan-4,9-dione in combination with nab-paclitaxel and gemcitabine were assessed in adult patients with metastatic pancreatic cancer. In each treatment cycle, 2-acetylnaphtho[2,3-b]furan-4,9-dione was administered at 240 mg BID for 4 weeks in combination with nab-paclitaxel 125 mg/m^2 and gemcitabine 1000 mg/m^2 administered weekly for 3 out of the 4 weeks. The treatment continued in 28-day cycles.
The patients received continuous oral administration of BBI-608 twice daily in 28 day cycles. A standard gemcitabine and nab-paclitaxel regimen was administered on days 1, 8 and 15 of every 28 day study cycle. Specifically, BBI-608 was administered at 240 mg BID in combination with gemcitabine 1000 mg/m^2 and nab-paclitaxel 125 mg/m^2 administered weekly for 3 out every 4 weeks until progression of disease, unacceptable toxicity, or another discontinuation criterion was met. Pharmacokinetics and pharmacodynamics were evaluated and objective tumor response was assessed every 8 weeks using Response Evaluation Criteria In Solid Tumors (RECIST 1.1).

STAT3 = assay: Clinical trials, overall survival by STAT3/pSTAT3 level; assay type: in vivo, human; settings: patients with higher expression levels of STAT3 (pSTAT3 before treatment), at least in CRC patients
From the text: Thus, the higher the level of pSTAT3 found in a cancer patient before treatment, at least in CRC patients, the higher the overall survival (OS) upon administering a treatment comprising at least one compound of formula (I).

STAT3 pathway = settings: according to U.S. Pat. No. 8,877,803; read-out: STAT3 pathway activity, cellular IC50; cited from earlier work
[2] = tested on: Paca-2 human pancreatic cancer; assay: Human PDAC xenograft tumor (Paca-2) in nude mice; assay type: in vivo
From the text: FIGS. 5A and 5B show an exemplary effect of a 2-acetylnaphtho[2,3-b]furan-4,9-dione and gemcitabine treatment on pancreatic ductal adenocarcinoma (PDAC) in an xenograft tumor mouse model according to certain embodiments of the present disclosure.
The effects of 2-acetylnaphtho[2,3-b]furan-4,9-dione, a compound of formula (I), on a human PDAC xenograft tumor (Paca-2) in nude mice were studied. Specifically, immunosuppressed mice with Paca-2 human pancreatic cancer were given 2-acetylnaphtho[2,3-b]furan-4,9-dione (20 mg/kg) or vehicle control IP daily or gemcitabine (120 mg/kg) or vehicle control IP every 3 days. Tumor size was evaluated periodically during treatment. Each point represents the mean+SEM of five tumors.

β-CATENIN = assay: Immunofluorescence staining of xenograft tumor cells for β-CATENIN; assay type: in vivo; settings: human colon cancer xenograft tumor (SW480) in nude mice; treated vs control
From the text: as §1

[3] = tested on: human pancreatic adenocarcinoma (Panc-1); assay: Human pancreatic adenocarcinoma (Panc-1) xenograft in immunosuppressed mice; assay type: in vivo
From the text: FIG. 6 show an exemplary effect of 2-acetylnaphtho[2,3-b]furan-4,9-dione, gemcitabine (Gemzar), and the combination of 2-acetylnaphtho[2,3-b]furan-4,9-dione and gemcitabine treatment on tumor volume in an xenograft tumor mouse model according to certain embodiments of the present disclosure.
The effects of 2-acetylnaphtho[2,3-b]furan-4,9-dione, a compound of formula (I), gemcitabine, and a combination of 2-acetylnaphtho[2,3-b]furan-4,9-dione and gemcitabine were studied. Specifically, immunosuppressed mice with established human pancreatic adenocarcinoma (Panc-1) were treated with vehicle control, 2-acetylnaphtho[2,3-b]furan-4,9-dione (100 mg/kg, PO, bid), gemcitabine (Gemzar, 80 mg/kg, IV, q3d), or the combination of 2-acetylnaphtho[2,3-b]furan-4,9-dione and gemcitabine. Tumor size was evaluated periodically during treatment. Each point represents the mean+SEM of five tumors.

T1 sequence (P40763 whole entry): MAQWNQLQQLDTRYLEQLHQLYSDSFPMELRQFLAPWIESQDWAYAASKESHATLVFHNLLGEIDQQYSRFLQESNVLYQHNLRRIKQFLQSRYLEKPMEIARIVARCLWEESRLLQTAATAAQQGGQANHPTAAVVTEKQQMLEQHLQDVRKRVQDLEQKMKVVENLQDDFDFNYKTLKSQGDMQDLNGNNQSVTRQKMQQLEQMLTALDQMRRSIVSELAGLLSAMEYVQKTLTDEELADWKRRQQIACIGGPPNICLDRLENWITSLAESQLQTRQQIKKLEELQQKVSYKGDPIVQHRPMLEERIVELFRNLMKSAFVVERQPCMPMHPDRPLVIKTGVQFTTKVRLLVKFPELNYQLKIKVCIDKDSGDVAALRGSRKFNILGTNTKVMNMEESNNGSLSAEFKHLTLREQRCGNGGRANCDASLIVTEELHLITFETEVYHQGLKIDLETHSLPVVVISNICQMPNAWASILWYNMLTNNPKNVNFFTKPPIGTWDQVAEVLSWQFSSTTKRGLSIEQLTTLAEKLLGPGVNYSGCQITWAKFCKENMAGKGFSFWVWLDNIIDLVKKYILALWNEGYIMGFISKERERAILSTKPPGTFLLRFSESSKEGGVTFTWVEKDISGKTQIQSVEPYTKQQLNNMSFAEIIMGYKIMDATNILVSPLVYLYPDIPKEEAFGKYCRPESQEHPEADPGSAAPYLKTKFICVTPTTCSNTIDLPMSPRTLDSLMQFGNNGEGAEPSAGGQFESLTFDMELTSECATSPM

In the case of `CC(=O)c1cc2c(o1)C(=O)c1ccccc1C2=O` [2-acetylnaphtho[2,3-b]furan-4,9-dione], the “tumor cells with positive staining for human p-STAT3” value (human p-STAT3) is reported as “effectively inhibited”, the “grade 3 AEs related to napabucasin, number of patients” value [1] is reported as 9 patients and the “grade 3 dehydration related to napabucasin, number of patients” value [1] is reported as 1 patient. The “grade 3 diarrhea related to napabucasin, number of patients” value [1] was 1 patient, the “grade 3 fatigue related to napabucasin, number of patients” value [1] was 5 patients and the “grade 3 hypokalemia related to napabucasin, number of patients” value [1] was 1 patient. For the same compound, the “grade 3 nausea related to napabucasin, number of patients” value [1] was 1 patient, the “most common adverse events (AEs) related to napabucasin” value [1] was “grade 1 diarrhea, abdominal pain, nausea, and fatigue” and the “overall survival after treatment” value (STAT3) was “prolonged overall survival”. For the same compound, the IC50 (STAT3 pathway) was ~250 nM, the “tumor growth (tumor size)” value ([2]; 20 mg/kg IP daily) was “effective at inhibiting tumor growth” and the “tumor cells with positive staining for β-CATENIN” value (β-CATENIN) was “effectively inhibited”. The “tumor growth (tumor size)” value ([3]; 100 mg/kg, PO, bid) was “certain effects in inhibiting tumor growth”.
With `Nc1ccn([C@@H]2O[C@H](CO)[C@@H](O)C2(F)F)c(=O)n1` [gemcitabine, reference compound] the “tumor growth (tumor size)” value ([2]; 120 mg/kg IP every 3 days) was “only a marginal effect on tumor growth” and the “tumor growth (tumor size)” value ([3]; Gemzar, 80 mg/kg, IV, q3d) was “certain effects in inhibiting tumor growth”.

Reference: patent US20190076392A1, “METHODS FOR TREATING CANCER” (Boston Biomedical, Inc., priority 2016, published 2019)
